The assay addresses T1, human oxytocin receptor (Homo sapiens, UniProt P30559).
T1 construct: host or cells: CHO cells (pcDNA3.1 vector)
T1 sequence (P30559 1-389): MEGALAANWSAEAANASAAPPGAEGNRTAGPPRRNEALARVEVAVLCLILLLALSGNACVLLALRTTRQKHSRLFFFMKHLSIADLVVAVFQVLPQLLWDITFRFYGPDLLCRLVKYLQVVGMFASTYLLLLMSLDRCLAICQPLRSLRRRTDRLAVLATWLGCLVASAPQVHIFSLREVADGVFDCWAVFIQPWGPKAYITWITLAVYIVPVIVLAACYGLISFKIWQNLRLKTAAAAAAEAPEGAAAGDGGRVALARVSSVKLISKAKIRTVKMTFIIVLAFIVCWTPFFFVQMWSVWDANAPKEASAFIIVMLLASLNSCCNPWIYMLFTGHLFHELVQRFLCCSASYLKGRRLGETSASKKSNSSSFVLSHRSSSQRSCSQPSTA
Kind of assay: Oxytocin binding in Chinese Hamster Ovary cell membranes expressing human oxytocin receptors. The note with it: 100 nM, CHO cell membranes, [3H]oxytocin, values without parentheses, read-out: OT % inhibition @ 100% nM.

For `O=C(c1ccc(-c2ccccc2)nc1)N1Cc2cccn2Cc2ccccc21` [Example 29, (6-Phenyl-pyridin-3-yl)-[10,11-dihydro-5H-pyrrolo[2,1-c][1,4]benzodiazepin-10-yl]methanone], the inhibition – broadly, how much of the control response was suppressed – at 0.1 µM was determined as 51%.
Take `COc1ccccc1-c1ccc(C(=O)N2Cc3ccc(C(=O)N[C@@H](Cc4c[nH]cn4)C(N)=O)n3Cc3ccccc32)cc1OC` [Example 286, N-[(1S)-2-Amino-1-(1H-imidazol-4-ylmethyl)-2-oxoethyl]-10-[(2,2′-dimethoxy[1,1′-biphenyl]-4-yl)carbonyl]-10,11-dihydro-5H-pyrrolo[2,1-c][1,4]benzodiazepine-3-carboxamide]: the inhibition at 0.1 µM came out at 86%.
Regarding `COc1cccc(-c2ccc(C(=O)N3Cc4ccc(C(=O)N5CCN(C)CC5)n4Cc4ccccc43)cc2C)c1` [Example 51, {10-[(3′-Methoxy-2-methyl[1,1′-biphenyl]-4-yl)carbonyl]-10,11-dihydro-5H-pyrrolo[2,1-c][1,4]benzodiazepin-3-yl}(4-methyl-1-piperazinyl)methanone], the inhibition at 0.1 µM stood at 81%.
The result for `COc1cc(C(=O)N2Cc3ccc(C(=O)n4ccnc4)n3Cc3ccccc32)ccc1-c1ccccc1C` [Example 290, 1H-Imidazol-1-yl-{10-[(2-methoxy-2′-methyl[1,1′-biphenyl]-4-yl)carbonyl]-10,11-dihydro-5H-pyrrolo[2,1-c][1,4]benzodiazepin-3-yl}methanone] reads 78%; that for `COc1cc(C(=O)N2Cc3ccc(C(=O)N4CCN(C)CC4)n3Cc3ccccc32)ccc1-c1cccc2ccccc12` [Example 55, {10-[3-Methoxy-4-(1-naphthyl)benzoyl]-10,11-dihydro-5H-pyrrolo[2,1-c][1,4]benzodiazepin-3-yl}(4-methyl-1-piperazinyl)methanone], 67%.
The result for `COc1cc(C(=O)N2Cc3ccc(C(=O)N4CCC(N5CCCC5)CC4)n3Cc3ccccc32)ccc1-n1c(C)ccc1C` [Example 313, {10-[4-(2,5-Dimethyl-1H-pyrrol-1-yl)-3-methoxybenzoyl]-10,11-dihydro-5H-pyrrolo[2,1-c][1,4]benzodiazepin-3-yl}[4-(1-pyrrolidinyl)-1-piperidinyl]methanone] reads 32%; that for `Cc1cc(C(=O)N2Cc3ccc(C(=O)N[C@H]4CN5CCC4CC5)n3Cc3ccccc32)ccc1-c1ccccc1C(F)(F)F` [Example 301, N-[(3R)-1-Azabicyclo[2.2.2]oct-3-yl]-10-{[2-methyl-2′-(trifluoromethyl)[1,1′-biphenyl]-4-yl]carbonyl}-10,11-dihydro-5H-pyrrolo[2,1-c][1,4]benzodiazepine-3-carboxamide], 82%.
With `COc1cccc(-c2ccc(C(=O)N3Cc4ccc(C(=O)NCCCN(C)C)n4Cc4ccccc43)cc2C)c1` [Example 74, N-[3-(Dimethylamino)propyl]-10-[(3′-methoxy-2-methyl[1,1′-biphenyl]-4-yl)carbonyl]-10,11-dihydro-5H-pyrrolo[2,1-c][1,4]benzodiazepine-3-carboxamide], the inhibition at 0.1 µM was 45%.
The result for `Cc1ccccc1-c1ccc(C(=O)N2Cc3ccc(C(=O)N4CCN(CCCN(C)C)CC4)n3Cc3ccccc32)cc1C` [Example 247, {4-[3-(Dimethylamino)propyl]-1-piperazinyl}{10-[(2,2′-dimethyl[1,1′-biphenyl]-4-yl)carbonyl]-10,11-dihydro-5H-pyrrolo[2,1-c][1,4]benzodiazepin-3-yl}methanone] reads 97%; that for `Cc1cc(C(=O)N2Cc3cccn3Cc3ccccc32)cc(C)c1-n1c(C)ccc1C` [Example 30, [4-(2,5-Dimethyl-1H-pyrrol-1-yl)-3,5-dimethyl-phenyl][10,11-dihydro-5H-pyrrolo[2,1-c][1,4]benzodiazepin-10-yl]methanone], 48%; that for `Cc1ccccc1-c1ccc(C(=O)N2Cc3ccc(C(=O)NCCCN(C)C)n3Cc3ccccc32)cc1` [Example 76, N-[3-(Dimethylamino)propyl]-10-[(2′-methyl[1,1′-biphenyl]-4-yl)carbonyl]-10,11-dihydro-5H-pyrrolo[2,1-c][1,4]benzodiazepine-3-carboxamide], 65%.
For the molecule `COc1cc(C(=O)N2Cc3ccc(C(=O)N4CCN(CCCN(C)C)CC4)n3Cc3ccccc32)ccc1-n1c(C)ccc1C` [Example 320, {4-[3-(Dimethylamino)propyl]-1-piperazinyl}{10-[4-(2,5-dimethyl-1H-pyrrol-1-yl)-3-methoxybenzoyl]-10,11-dihydro-5H-pyrrolo[2,1-c][1,4]benzodiazepin-3-yl}methanone], the inhibition at 0.1 µM amounted to 34%.
On to `COc1cccc(-c2ccc(C(=O)N3Cc4ccc(C(=O)n5ccnc5)n4Cc4ccccc43)cc2C)c1` [Example 289, 1H-Imidazol-1-yl-{10-[(3′-methoxy-2-methyl[1,1′-biphenyl]-4-yl)carbonyl]-10,11-dihydro-5H-pyrrolo[2,1-c][1,4]benzodiazepin-3-yl}methanone], for which the inhibition at 0.1 µM came to 45%.
The result for `COc1cc(C(=O)N2Cc3ccc(C(=O)NCCCN(C)C)n3Cc3ccccc32)ccc1-c1ccccc1C` [Example 77, N-[3-(Dimethylamino)propyl]-10-[(2-methoxy-2′-methyl[1,1′-biphenyl]-4-yl)carbonyl]-10,11-dihydro-5H-pyrrolo[2,1-c][1,4]benzodiazepine-3-carboxamide] reads 65%; that for `COc1cc(C(=O)N2Cc3ccc(C(=O)n4ccnc4)n3Cc3ccccc32)ccc1-c1cccc2ccccc12` [Example 291, 1H-Imidazol-1-yl-{10-[3-methoxy-4-(1-naphthyl)benzoyl]-10,11-dihydro-5H-pyrrolo[2,1-c][1,4]benzodiazepin-3-yl}methanone], 32%; that for `COc1ccccc1-c1ccc(C(=O)N2Cc3ccc(C(=O)N[C@H]4CN5CCC4CC5)n3Cc3ccccc32)cc1C` [Example 298, N-[(3R)-1-Azabicyclo[2.2.2]oct-3-yl]-10-[(2′-methoxy-2-methyl[1,1′-biphenyl]-4-yl)carbonyl]-10,11-dihydro-5H-pyrrolo[2,1-c][1,4]benzodiazepine-3-carboxamide], 94%.
The result for `COc1ccccc1-c1ccc(C(=O)N2Cc3ccc(C(=O)n4ccnc4)n3Cc3ccccc32)cc1OC` [Example 293, {10-[(2,2′-Dimethoxy[1,1′-biphenyl]-4-yl)carbonyl]-10,11-dihydro-5H-pyrrolo[2,1-c][1,4]benzodiazepin-3-yl}(1H-imidazol-1-yl)methanone] reads 53%.
As for `Cc1cc(C(=O)N2Cc3ccc(C(=O)n4ccnc4)n3Cc3ccccc32)ccc1-c1ccccc1C(F)(F)F` [Example 294, 1H-Imidazol-1-yl(10-{[2-methyl-2′-(trifluoromethyl)[1,1′-biphenyl]-4-yl]carbonyl}-10,11-dihydro-5H-pyrrolo[2,1-c][1,4]benzodiazepin-3-yl)methanone], the inhibition at 0.1 µM was 54%.
The result for `COc1cc(C(=O)N2Cc3ccc(C(=O)N4CCN(C)CC4)n3Cc3ccccc32)ccc1-c1ccccc1C` [Example 53, {10-[(2-Methoxy-2′-methyl[1,1′-biphenyl]-4-yl)carbonyl]-10,11-dihydro-5H-pyrrolo[2,1-c][1,4]benzodiazepin-3-yl}(4-methyl-1-piperazinyl)methanone] reads 89%.
